Assay results published in patent US12221423B1, “3-(3-fluorophenyl)-5-(4-methoxybenzylthio)-4-phenyl-4H-1,2,4-triazole as an antimicrobial compound” (KING FAISAL UNIVERSITY, priority 2023, dated 2025).

Tests used:
Assay type in all cases: cell-based
Staphylococcus aureus = assay: Agar plate disc-diffusion, antibacterial inhibition zone; details: Staphylococcus aureus (Gram positive), nutrient agar, 37° C., 48 hours
Procedure: (§1) The agar plate disc-diffusion method was applied. […] The discs were then placed onto the surface of agar plates (nutrient agar for bacteria and Sabouraud's dextrose agar for fungi) seeded with the test organism. Each plate contained 15 mL of the agar medium, previously seeded with 0.2 mL of the broth culture of each organism pregrown for 18 hours. The plates were incubated at 37° C. for 48 hours, and 72 hours for fungi. The inhibition zones were measured in mm. Discs impregnated with DMSO were used as a control, and its inhibition zone was subtracted from the tested compound actual inhibition zone.

Bacillus Cereus = assay: as above; details: Bacillus Cereus (Gram positive), nutrient agar, 37° C., 48 hours
Procedure: as §1

Escherichia coli = assay: as above; details: Escherichia coli (Gram negative), nutrient agar, 37° C., 48 hours
Procedure: as §1

Pseudomonas aeruginosa = assay: as above; details: Pseudomonas aeruginosa (Gram negative), nutrient agar, 37° C., 48 hours
Procedure: as §1

Aspergillus flavus = assay: Agar plate disc-diffusion, antifungal inhibition zone; details: Sabouraud's dextrose agar, 72 hours
Procedure: as §1

[1] = test system: Chrysosporium keratinophilum; assay: as above; details: Sabouraud's dextrose agar, 72 hours
Procedure: as §1

[2] = A = concentration of comp. = 10,000 μL
[3] = B = concentration of comp. = 30,000 μL
[4] = C = concentration of comp. = 50,000 μL

COc1ccc(CSc2nnc(-c3cccc(F)c3)n2-c2ccccc2)cc1 [III, 3-(3-fluorophenyl)-5-(4-methoxybenzylthio)-4-phenyl-4H-1,2,4-triazole]
inhibition zone (Staphylococcus aureus; [2]): 16 mm
inhibition zone (Staphylococcus aureus; [3]): 22 mm
inhibition zone (Staphylococcus aureus; C = concentration of comp.): 34 mm
inhibition zone (Bacillus Cereus; [2]): 24 mm
inhibition zone (Bacillus Cereus; [3]): 27 mm
inhibition zone (Bacillus Cereus; [4]): 40 mm
inhibition zone (Escherichia coli; [2]): 27 mm
inhibition zone (Escherichia coli; [3]): 35 mm
inhibition zone (Escherichia coli; [4]): 48 mm
inhibition zone (Pseudomonas aeruginosa; [2]): 22 mm
inhibition zone (Pseudomonas aeruginosa; [3]): 25 mm
inhibition zone (Pseudomonas aeruginosa; [4]): 36 mm
inhibition zone (Aspergillus flavus; [2]): 19 mm
inhibition zone (Aspergillus flavus; [3]): 22 mm
inhibition zone (Aspergillus flavus; [4]): 31 mm
inhibition zone [1, 2]: 26 mm
inhibition zone [1, 3]: 28 mm
inhibition zone [1, 4]: 42 mm
